Data on one molecule can be found in US11466006B2, “Dual selective PI3 delta and gamma kinase inhibitors” (Rhizen Pharmaceuticals SA, priority 2013, dated 2022).

The subject of assay [1] is pAKT. Put plainly: pAKT inhibition in human primary CTCL cells (flow cytometry). The assay is classed as cell-based. The conditions noted are these: cytokine mix stimulated, read-out: EC50, reduction of AKT phosphorylation. The method, then: Flow cytometry analysis of pAKT inhibition: Purified malignant T cells were isolated from donors and cultured overnight in RPMI/1% BSA. Cells were incubated with the test compound for 1.5 hr with a cytokine mix added for the final 30 minutes. The composition of the cytokine mix was 20 ng/ml IL2+5 ng/ml IL7+10 ng/ml IL15+10% FBS. AKT phosphorylation was determined by flow cytometry.
On the technique in general: Flow cytometry measures light scatter and fluorescence of single cells or particles in a stream.

The next assay relates to Primary CLL cells. Put plainly: Anti-cancer activity in human CLL cells (MTS cytotoxicity). It counts as cell-based. The conditions noted are these: CLL cell, 72 h, 3 days, read-out: median EC50, cytotoxicity in CLL cells. The method, then:
Primary CLL cells were enriched using Rosette-Sep B cells from Stem Cell Technology, generally giving purity of >97% of B cells/CLL cells. Cells were seeded at 2.5×10^5 per well in a 96 well with either serum free medium (SFM) or SFM+10% heat-inactivated fetal bovine serum (volume 100 microliters) in the presence of desired concentrations of the test compound and cultured for 3 days at 37° C. in a carbon dioxide incubator. Cytotoxicity was determined using the MTS assay.

For assay [2], the system named is primary cells derived from B-cell lymphomas. Put plainly: Anticancer activity in patient derived B-lymphoma cells (Annexin V/PI). The assay is classed as cell-based. The conditions noted are these: 4 μM, 48-h incubation. How it is done:
Primary cells from lymphoid tumors were exposed to the test compound [Compound A1] to assess the induction of cell death. Cells were derived from diffuse large B-cell lymphoma (DLBCL), mantle cell lymphoma (MCL), splenic marginal zone lymphoma (SMZL), extranodal marginal zone lymphoma (EMZL), or chronic lymphocytic leukemia (CLL, no.=1). Cells were treated with desired concentrations of the compound and apoptosis (Annexin V/PI) was assessed by flow-cytometry after a 48-h incubation period.

Assay [3] deals with pAKT. Put plainly: Inhibition of AKT phosphorylation in B-lymphoma cell lines. It counts as cell-based. The conditions noted are these: LY-1, LY-10, Daudi, JEKO, REC and MAVER cells; 48 hours. How it is done: LY-1, LY-10, Daudi, JEKO, REC and MAVER cells were incubated with desired concentrations of [compound A1] for 48 hours. Cells were lysed and pAKT was determined by Western Blotting. Bands were quantified using ImageJ and normalized to actin.

The subject of the next assay is Female Wistar rats. Put plainly: Lipopolysaccharide induced pulmonary neutrophilia in female Wistar rat model. The assay is classed as in vivo. As to conditions: Neutrophil, oral gavage, 1 h before intratracheal LPS, BAL at 6 h, read-out: ED50, reduction of neutrophil infiltration into the lungs. The method, then: After the quarantine period, fasted animals were randomized and divided into various groups depending on their body weights. The test compound [Compound A1] was prepared as a suspension in a vehicle consisting of 0.5% methylcellulose in which Tween 80 as a suspending agent. The compound or vehicle was administered by oral gavage in a volume of 10 mL/kg. Female Wistar rats were anaesthetized with ketamine and LPS solution was administered intratracheally one hour after compound administration at a dose of 1 mg/kg. 6 h after LPS instillation, animals were exsanguinated under anaesthesia, and then trachea was cannulated and the lungs were lavaged with 5-ml aliquots of heparinised PBS (1 unit/ml) four times through tracheal cannula (total volume 20 ml). Bronchoalveolar lavage (BAL) fluid was been stored at 2-8° C. until assayed for total cell and differential leukocyte count. Bronchioalveolar fluid was centrifuged (500×g for 10 min) and the resulting cell pellet was resuspended in 0.5 ml of heparinised saline. The total numbers of white blood cells were determined in BAL fluid or blood by using a blood cell counter and was adjusted to 1×10^6 cell/ml. Differential cell count was calculated manually. […] The number of each cell type among 300 white blood cells in the cell smear was determined and expressed as a percentage. The number of eosinophil in each BALf or blood was calculated.

For another assay, the target named is Pi3K γ (Homo sapiens, UniProt P48736). Put plainly: Fluorescent (HTRF) determination of PI3 kinase enzyme activity, gamma isoform. The assay is classed as biochemical. Also on record: purchased Millipore (assay kit). As to conditions: Table 1, HTRF; read-out: IC50 (nM) Pi3K γ. The text has this: Phosphoinositide 3 kinases (PI3K) belong to a class of lipid kinases that play a critical role in the regulation of several key cellular processes. The PI3K are capable of phosphorylating the 3-hydroxy position of phosphoinositols thereby generating second messengers involved in downstream signalling events. The homogenous time resolved fluorescence (HTRF) assay allows detection of 3,4,5-triphosphate (PIP3) formed as a result of phosphorylation of phosphotidylinositol 4,5-biphosphate (PIP2) by PI3K isoforms such as α, β, γ or δ.
Pi3K γ, sequence (P48736 whole entry, canonical isoform): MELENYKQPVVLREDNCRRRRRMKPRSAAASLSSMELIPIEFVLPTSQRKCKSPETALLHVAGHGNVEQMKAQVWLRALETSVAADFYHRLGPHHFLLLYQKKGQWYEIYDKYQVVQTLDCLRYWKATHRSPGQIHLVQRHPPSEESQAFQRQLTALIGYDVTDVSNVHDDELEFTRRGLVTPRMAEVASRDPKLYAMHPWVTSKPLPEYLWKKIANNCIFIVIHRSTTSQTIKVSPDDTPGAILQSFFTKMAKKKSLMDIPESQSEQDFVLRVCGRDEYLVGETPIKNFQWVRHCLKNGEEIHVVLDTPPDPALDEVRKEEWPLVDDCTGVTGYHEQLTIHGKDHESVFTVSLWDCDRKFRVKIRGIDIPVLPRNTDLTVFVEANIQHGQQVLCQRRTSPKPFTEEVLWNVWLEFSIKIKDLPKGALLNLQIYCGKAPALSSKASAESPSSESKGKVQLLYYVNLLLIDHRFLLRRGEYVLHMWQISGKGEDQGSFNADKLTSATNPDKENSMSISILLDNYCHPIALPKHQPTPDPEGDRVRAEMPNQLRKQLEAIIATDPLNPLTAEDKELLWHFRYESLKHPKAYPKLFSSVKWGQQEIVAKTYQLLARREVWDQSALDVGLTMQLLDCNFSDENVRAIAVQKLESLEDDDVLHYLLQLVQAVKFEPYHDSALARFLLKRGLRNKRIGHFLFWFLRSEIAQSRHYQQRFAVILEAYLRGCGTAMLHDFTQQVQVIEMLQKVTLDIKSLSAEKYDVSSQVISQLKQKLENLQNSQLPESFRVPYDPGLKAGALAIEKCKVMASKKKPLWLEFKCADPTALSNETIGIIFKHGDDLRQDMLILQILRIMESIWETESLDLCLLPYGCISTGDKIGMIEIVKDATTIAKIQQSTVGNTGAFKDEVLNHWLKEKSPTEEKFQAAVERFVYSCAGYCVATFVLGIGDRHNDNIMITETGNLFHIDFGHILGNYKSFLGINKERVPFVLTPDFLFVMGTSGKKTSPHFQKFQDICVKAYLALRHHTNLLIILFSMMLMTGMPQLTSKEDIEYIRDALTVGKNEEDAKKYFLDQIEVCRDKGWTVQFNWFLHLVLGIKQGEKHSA
PI3K isoform activity for α, β, γ or δ was determined using a PI3K human HTRF™ Assay Kit (Millipore, Billerica, Mass.) with modifications. All incubations were carried out at room temperature. Briefly, 0.5 μl of 40× inhibitor (in 100% DMSO) or 100% DMSO were added to each well of a 384-well white plate (Greiner Bio-One, Monroe, N.C.) containing 14.5 μl 1× reaction buffer /PIP2 (10 mM MgCl2, 5 mM DTT, 1.38 μM PIP2) mix with or without enzyme, followed by 5 μl/well of 400 μM ATP and incubated for an additional 30 minutes. Reaction was terminated by adding 5 μl/well stop solution (Millipore, Billerica, Mass.). […] HRTF ratio was measured on a microplate reader (BMG Labtech., Germany) at an excitation wavelength of 337 nm and emission wavelengths of 665 and 615 nm with an integration time of 400 msec counting delay of 50 msec.
Background: TR-FRET usually uses a lanthanide donor and a delayed reading to cut background.

Like-named read-outs stand apart in the source and are kept apart here. Where only a bound is given, the exact number is not on record here.

For the molecule `CC[C@H](Nc1ncnc2[nH]cnc12)c1oc2ccccc2c(=O)c1-c1cccc(F)c1` [Compound A1, (S)-2-(1-(9H-purin-6-ylamino)propyl)-3-(3-fluorophenyl)-4H-chromen-4-one], the EC50 was 40 to 300 nM in the assay on pAKT [1], less than 700 nM in the assay with Primary CLL cells (10% FBS media), less than 100 nM in the assay with Primary CLL cells (serum-free medium) and 20 to 200 nM in the assay with pAKT [3]. The “cell death (apoptosis, Annexin V/PI)” value in assay [2] is given as “increase in cell death”. For the same molecule, the ED50 in the assay on Female Wistar rats stood at 6.5 mg/kg. Besides, the IC50 at Pi3K γ is 24.1 nM.

Broadly, the EC50 is the concentration that produces a half-maximal response. For orientation: IC50 means the midpoint of a concentration-inhibition curve.
